Reference: PubChem BioAssay AID256 (DTP/NCI, 2004)
Values joined by “and” are separate entries in the source; they are usually repeats but may differ in a detail not shown here. Equal entries are not always repeated. Inconclusive results and toxic doses are left out.

Test system: CD2F1 mice, L1210 leukemia ip, survival T/C
Assay: NCI In Vivo Anticancer Drug Screen. Data for tumor model L1210 Leukemia (intraperitoneal) in CD2F1 (CDF1) mice
Settings: higher = longer survival
Summary of the method: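 In this screen, transplantable tumors were grown in mice given either the compound or its vehicle. Results were expressed as the treated measurement relative to the control measurement.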

For `O=C1NC(=O)C2C3C=CC(C12)C1C2C(=O)NC(=O)C2C31` (stereo not drawn), the T/C (endpoint: mean survival time, dose: 12.5 mg/kg/injection, schedule: Q01DX009 (ip), vehicle: saline with Tween-80) was 115 % of control, the T/C (endpoint: mean survival time, dose: 12.5 mg/kg/injection, schedule: Q01DX009 (oral), vehicle: saline with Tween-80) was 100 % of control and the T/C (endpoint: mean survival time, dose: 25.0 mg/kg/injection, schedule: Q01DX009 (oral), vehicle: saline with Tween-80) was 96 % of control. The T/C (endpoint: mean survival time, dose: 50.0 mg/kg/injection, schedule: Q01DX009 (ip), vehicle: saline with Tween-80) was 164 % of control, the T/C (endpoint: mean survival time, dose: 50.0 mg/kg/injection, schedule: Q01DX009 (oral), vehicle: saline with Tween-80) was 101 % of control and the T/C (endpoint: mean survival time, dose: 100.0 mg/kg/injection, schedule: Q01DX009 (ip), vehicle: saline with Tween-80) was 188 % of control. The T/C (endpoint: mean survival time, dose: 100.0 mg/kg/injection, schedule: Q01DX009 (oral), vehicle: saline with Tween-80) was 104 % of control, the T/C (endpoint: mean survival time, dose: 200.0 mg/kg/injection, schedule: Q01DX009 (oral), vehicle: saline with Tween-80) was 101 % of control and the T/C (endpoint: mean survival time, dose: 400.0 mg/kg/injection, schedule: Q01DX009 (oral), vehicle: saline with Tween-80) was 111 % of control. For the same molecule, the T/C (endpoint: median survival time, dose: 2.6 mg/kg/injection, schedule: Q03HX024 (ip), vehicle: clinical formulation) was 110 % of control, the T/C (endpoint: median survival time, dose: 3.12 mg/kg/injection, schedule: Q01DX009 (ip), vehicle: clinical formulation) was 106 % of control and the T/C (endpoint: median survival time, dose: 3.12 mg/kg/injection, schedule: Q01DX009 (ip), vehicle: saline with Tween-80) was 108 % of control. For the same molecule, the T/C (endpoint: median survival time, dose: 6.0 mg/kg/injection, schedule: Q03HX027 (ip), vehicle: saline) was 112 % of control, the T/C (endpoint: median survival time, dose: 6.25 mg/kg/injection, schedule: Q01DX009 (ip), vehicle: clinical formulation) was 108 % of control and the T/C (endpoint: median survival time, dose: 6.9 mg/kg/injection, schedule: Q01DX009 (ip), vehicle: clinical formulation) was 102 % of control. The T/C (endpoint: median survival time, dose: 7.8 mg/kg/injection, schedule: Q03HX008 (ip), vehicle: clinical formulation) was 162 % of control, the T/C (endpoint: median survival time, dose: 10.4 mg/kg/injection, schedule: Q03HX024 (ip), vehicle: clinical formulation) was 162 % of control and the T/C (endpoint: median survival time, dose: 11.8 mg/kg/injection, schedule: Q01DX009 (ip), vehicle: water) was 108 % of control. The T/C (endpoint: median survival time, dose: 12.5 mg/kg/injection, schedule: Q01DX005 (ip), vehicle: clinical formulation) was 100 % of control, the T/C (endpoint: median survival time, dose: 12.5 mg/kg/injection, schedule: Q01DX005 (ip), vehicle: other) was 101 % of control and 106 % of control and the T/C (endpoint: median survival time, dose: 12.5 mg/kg/injection, schedule: Q01DX005 (iv), vehicle: clinical formulation) was 108 % of control. The T/C (endpoint: median survival time, dose: 12.5 mg/kg/injection, schedule: Q01DX005 (iv), vehicle: other) was 103 % of control and 104 % of control, the T/C (endpoint: median survival time, dose: 12.5 mg/kg/injection, schedule: Q01DX009 (ip), vehicle: clinical formulation) was 112 % of control and the T/C (endpoint: median survival time, dose: 12.5 mg/kg/injection, schedule: Q01DX009 (ip), vehicle: saline with Tween-80) was 116 % of control. For the same molecule, the T/C (endpoint: median survival time, dose: 12.5 mg/kg/injection, schedule: Q01DX009 (oral), vehicle: other) was 100 % of control, the T/C (endpoint: median survival time, dose: 13.8 mg/kg/injection, schedule: Q01DX009 (ip), vehicle: clinical formulation) was 101 % of control and the T/C (endpoint: median survival time, dose: 14.0 mg/kg/injection, schedule: Q01DX009 (ip), vehicle: water) was 117 % of control. The T/C (endpoint: median survival time, dose: 16.7 mg/kg/injection, schedule: Q03HX027 (ip), vehicle: saline) was 152 % of control, the T/C (endpoint: median survival time, dose: 18.0 mg/kg/injection, schedule: Q01DX009 (ip), vehicle: clinical formulation) was 110 % of control and the T/C (endpoint: median survival time, dose: 18.0 mg/kg/injection, schedule: Q01DX009 (ip), vehicle: saline) was 103 % of control. For the same molecule, the T/C (endpoint: median survival time, dose: 18.0 mg/kg/injection, schedule: Q01DX009 (ip), vehicle: water) was 113 % of control, the T/C (endpoint: median survival time, dose: 19.7 mg/kg/injection, schedule: Q01DX009 (ip), vehicle: water) was 107 % of control and the T/C (endpoint: median survival time, dose: 20.8 mg/kg/injection, schedule: Q03HX024 (ip), vehicle: clinical formulation) was 114 % of control. For the same molecule, the T/C (endpoint: median survival time, dose: 20.8 mg/kg/injection, schedule: Q04DX003 (ip), vehicle: clinical formulation) was 121 % of control, the T/C (endpoint: median survival time, dose: 23.3 mg/kg/injection, schedule: Q01DX009 (ip), vehicle: water) was 150 % of control and the T/C (endpoint: median survival time, dose: 25.0 mg/kg/injection, schedule: Q01DX001 (iv), vehicle: other) was 100 % of control. The T/C (endpoint: median survival time, dose: 25.0 mg/kg/injection, schedule: Q01DX005 (ip), vehicle: clinical formulation) was 114 % of control, the T/C (endpoint: median survival time, dose: 25.0 mg/kg/injection, schedule: Q01DX005 (ip), vehicle: other) was 108 % of control and the T/C (endpoint: median survival time, dose: 25.0 mg/kg/injection, schedule: Q01DX005 (iv), vehicle: other) was 101 % of control and 109 % of control. For the same molecule, the T/C (endpoint: median survival time, dose: 25.0 mg/kg/injection, schedule: Q01DX005 (oral), vehicle: other) was 98 % of control, the T/C (endpoint: median survival time, dose: 25.0 mg/kg/injection, schedule: Q01DX009 (ip), vehicle: clinical formulation) was 122 % of control and the T/C (endpoint: median survival time, dose: 25.0 mg/kg/injection, schedule: Q01DX009 (oral), vehicle: other) was 98 % of control. For the same molecule, the T/C (endpoint: median survival time, dose: 27.7 mg/kg/injection, schedule: Q01DX009 (ip), vehicle: clinical formulation) was 154 % of control, the T/C (endpoint: median survival time, dose: 27.8 mg/kg/injection, schedule: Q03HX027 (ip), vehicle: saline) was 183 % of control and the T/C (endpoint: median survival time, dose: 30.0 mg/kg/injection, schedule: Q01DX009 (ip), vehicle: clinical formulation) was 166 % of control. The T/C (endpoint: median survival time, dose: 30.0 mg/kg/injection, schedule: Q01DX009 (ip), vehicle: water) was 186 % of control, the T/C (endpoint: median survival time, dose: 32.9 mg/kg/injection, schedule: Q01DX009 (ip), vehicle: water) was 226 % of control and the T/C (endpoint: median survival time, dose: 38.9 mg/kg/injection, schedule: Q01DX009 (ip), vehicle: water) was 200 % of control. The T/C (endpoint: median survival time, dose: 46.3 mg/kg/injection, schedule: Q03HX027 (ip), vehicle: saline) was 88 % of control, the T/C (endpoint: median survival time, dose: 50.0 mg/kg/injection, schedule: Q01DX001 (iv), vehicle: other) was 106 % of control and the T/C (endpoint: median survival time, dose: 50.0 mg/kg/injection, schedule: Q01DX001 (oral), vehicle: other) was 100 % of control. The T/C (endpoint: median survival time, dose: 50.0 mg/kg/injection, schedule: Q01DX005 (ip), vehicle: clinical formulation) was 198 % of control, the T/C (endpoint: median survival time, dose: 50.0 mg/kg/injection, schedule: Q01DX005 (iv), vehicle: clinical formulation) was 174 % of control and the T/C (endpoint: median survival time, dose: 50.0 mg/kg/injection, schedule: Q01DX005 (iv), vehicle: other) was 185 % of control. For the same molecule, the T/C (endpoint: median survival time, dose: 50.0 mg/kg/injection, schedule: Q01DX005 (oral), vehicle: other) was 101 % of control, the T/C (endpoint: median survival time, dose: 50.0 mg/kg/injection, schedule: Q01DX009 (ip), vehicle: clinical formulation) was 176 % of control and 203 % of control and the T/C (endpoint: median survival time, dose: 50.0 mg/kg/injection, schedule: Q01DX009 (ip), vehicle: saline with Tween-80) was 246 % of control. For the same molecule, the T/C (endpoint: median survival time, dose: 50.0 mg/kg/injection, schedule: Q01DX009 (ip), vehicle: saline) was 160 % of control, the T/C (endpoint: median survival time, dose: 50.0 mg/kg/injection, schedule: Q01DX009 (ip), vehicle: water) was 256 % of control and the T/C (endpoint: median survival time, dose: 50.0 mg/kg/injection, schedule: Q01DX009 (oral), vehicle: other) was 109 % of control. The T/C (endpoint: median survival time, dose: 54.8 mg/kg/injection, schedule: Q01DX009 (ip), vehicle: water) was 119 % of control, the T/C (endpoint: median survival time, dose: 55.5 mg/kg/injection, schedule: Q01DX009 (ip), vehicle: clinical formulation) was 284 % of control and the T/C (endpoint: median survival time, dose: 55.5 mg/kg/injection, schedule: Q01DX009 (oral), vehicle: clinical formulation) was 108 % of control. For the same molecule, the T/C (endpoint: median survival time, dose: 62.5 mg/kg/injection, schedule: Q01DX001 (iv), vehicle: clinical formulation) was 151 % of control, the T/C (endpoint: median survival time, dose: 64.8 mg/kg/injection, schedule: Q01DX009 (ip), vehicle: water) was 268 % of control and the T/C (endpoint: median survival time, dose: 83.3 mg/kg/injection, schedule: Q01DX009 (ip), vehicle: clinical formulation) was 112 % of control. For the same molecule, the T/C (endpoint: median survival time, dose: 83.3 mg/kg/injection, schedule: Q01DX009 (ip), vehicle: saline) was 106 % of control, the T/C (endpoint: median survival time, dose: 83.3 mg/kg/injection, schedule: Q01DX009 (ip), vehicle: water) was 97 % of control and the T/C (endpoint: median survival time, dose: 83.3 mg/kg/injection, schedule: Q04DX003 (ip), vehicle: clinical formulation) was 182 % of control. For the same molecule, the T/C (endpoint: median survival time, dose: 100.0 mg/kg/injection, schedule: Q01DX001 (iv), vehicle: other) was 104 % of control, the T/C (endpoint: median survival time, dose: 100.0 mg/kg/injection, schedule: Q01DX001 (oral), vehicle: other) was 98 % of control and the T/C (endpoint: median survival time, dose: 100.0 mg/kg/injection, schedule: Q01DX005 (iv), vehicle: other) was 150 % of control and 195 % of control. The T/C (endpoint: median survival time, dose: 100.0 mg/kg/injection, schedule: Q01DX005 (oral), vehicle: other) was 100 % of control, the T/C (endpoint: median survival time, dose: 100.0 mg/kg/injection, schedule: Q01DX009 (oral), vehicle: other) was 114 % of control and the T/C (endpoint: median survival time, dose: 111.1 mg/kg/injection, schedule: Q01DX009 (ip), vehicle: clinical formulation) was 93 % of control. For the same molecule, the T/C (endpoint: median survival time, dose: 111.1 mg/kg/injection, schedule: Q01DX009 (oral), vehicle: clinical formulation) was 121 % of control, the T/C (endpoint: median survival time, dose: 125.0 mg/kg/injection, schedule: Q01DX001 (ip), vehicle: clinical formulation) was 170 % of control and the T/C (endpoint: median survival time, dose: 200.0 mg/kg/injection, schedule: Q01DX001 (iv), vehicle: other) was 104 % of control. For the same molecule, the T/C (endpoint: median survival time, dose: 200.0 mg/kg/injection, schedule: Q01DX001 (oral), vehicle: other) was 98 % of control, the T/C (endpoint: median survival time, dose: 200.0 mg/kg/injection, schedule: Q01DX005 (ip), vehicle: other) was 109 % of control and the T/C (endpoint: median survival time, dose: 200.0 mg/kg/injection, schedule: Q01DX005 (iv), vehicle: other) was 158 % of control. The T/C (endpoint: median survival time, dose: 200.0 mg/kg/injection, schedule: Q01DX005 (oral), vehicle: other) was 110 % of control, the T/C (endpoint: median survival time, dose: 400.0 mg/kg/injection, schedule: Q01DX001 (iv), vehicle: other) was 101 % of control and the T/C (endpoint: median survival time, dose: 400.0 mg/kg/injection, schedule: Q01DX001 (oral), vehicle: other) was 98 % of control. The T/C (endpoint: median survival time, dose: 400.0 mg/kg/injection, schedule: Q01DX005 (oral), vehicle: other) was 112 % of control, the T/C (endpoint: median survival time, dose: 444.4 mg/kg/injection, schedule: Q01DX009 (oral), vehicle: clinical formulation) was 158 % of control and the T/C (endpoint: median survival time, dose: 800.0 mg/kg/injection, schedule: Q01DX001 (oral), vehicle: other) was 102 % of control. For the same molecule, the T/C (endpoint: median survival time, dose: 888.8 mg/kg/injection, schedule: Q01DX009 (oral), vehicle: clinical formulation) was 184 % of control.
